# In PubChem BioAssay (NCI):
#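 Results reflect a 48-hour exposure of cells in 96-well plates to compound at five concentrations. At the GI50, growth is halved. TGI: concentration producing complete growth inhibition.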
# Columns and labels:
# Assay in all cases: NCI anticancer screen, dose series, 48 h
# [1] = test system: ACHN renal
# [2] = test system: SK-MEL-28 melanoma
# [3] = test system: SF-268 CNS
# [4] = test system: SNB-19 CNS
# [5] = test system: SNB-75 CNS
# [6] = test system: DU-145 prostate
# [7] = test system: MOLT-4 leukemia
# [8] = test system: TK-10 renal
# [9] = test system: PC-3 prostate
# [10] = test system: HL-60(TB) leukemia
SMILES,TGI [1],TGI [2],TGI [3],TGI [4],TGI [5],GI50 [1],GI50 [6],TGI [6],GI50 [2],GI50 [7],TGI [7],GI50 [8],TGI [8],GI50 [3],GI50 [9],TGI [9],GI50 [4],GI50 [5],TGI [10],GI50 [10]
Cc1ccc(S(=O)(=O)N/N=C(/CC(=O)c2c(C)n([O-])c3ccccc3[n+]2=O)C(=O)Nc2ccccc2C)cc1,> 100 µM,> 100 µM,> 100 µM,> 100 µM,> 100 µM,,,,,,,,,,,,,,,
Cc1cc(C#Cc2ccc(C(C)(C)C)cc2)ccc1-n1c(/C=C/c2ccc(O)cc2O)nc2ccccc2c1=O,13.4 µM,7.27 µM,18 µM,22.5 µM,16 µM,3.26 µM,3.42 µM,13.3 µM,2.42 µM,2.45 µM,10.2 µM,3.82 µM,12.8 µM,4.82 µM,3.67 µM,16.2 µM,7.9 µM,1.87 µM,,
N#Cc1ccc(C=NC23CC4CC(CC(C4)C2)C3)cc1,> 100 µM,> 100 µM,> 100 µM,> 100 µM,,,,,,,> 100 µM,,> 100 µM,,,,,,53 µM,
O=C(CC1SC(=Nc2ccccc2Cl)NC1=O)Nc1ccc(Cl)cc1Cl (centres undefined),> 100 µM,> 100 µM,> 100 µM,> 100 µM,> 100 µM,,,,,,> 100 µM,,> 100 µM,,,,,,> 100 µM,
N#CC(C#N)c1ccc(C(=O)N2CCC[C@H]2CO)cc1,> 100 µM,> 100 µM,> 100 µM,> 100 µM,> 100 µM,,,,,,> 100 µM,,> 100 µM,,,,,,> 100 µM,
O=S(=O)(/C=C/C(=C/c1ccccc1)S(=O)(=O)c1ccccc1)c1ccccc1,3.14 µM,2.8 µM,4.1 µM,3.18 µM,3.43 µM,,,,,,5.21 µM,,3.24 µM,,,,,,,
O=c1[nH]cc(F)c(=O)n1C1OC(CO)C(O)C1O (centres undefined),> 100 µM,> 100 µM,> 100 µM,> 100 µM,> 100 µM,,,,,,> 100 µM,,> 100 µM,,,,,,> 100 µM,
C/C(=C\c1cnc(C)s1)[C@@H]1C[C@@H]2O[C@@H]2CCC[C@H](C)[C@H](O)[C@@H](C)C(=O)C(C)(C)[C@@H](O)CC(=O)O1,> 100 µM,> 100 µM,,> 100 µM,,< 0.01 µM,< 0.01 µM,> 100 µM,> 100 µM,< 0.01 µM,> 100 µM,0.936 µM,> 100 µM,,< 0.01 µM,> 100 µM,< 0.01 µM,< 0.01 µM,,
O=S(=O)(c1cccc(N=C=S)c1)c1cccc(N=C=S)c1,34.5 µM,33.6 µM,39.8 µM,> 100 µM,,,,,,,30.6 µM,,40 µM,,,,,,50 µM,
C(=N/N(Cc1ccccc1)Cc1ccccc1)/c1ccccc1,> 100 µM,> 100 µM,> 100 µM,> 100 µM,> 100 µM,> 100 µM,> 100 µM,> 100 µM,> 100 µM,,,> 100 µM,> 100 µM,> 100 µM,> 100 µM,> 100 µM,> 100 µM,> 100 µM,,
NC(=O)c1csc(C2OC(COP(=O)(O)CP(=O)(O)OCC3OC(n4cnc5c(N)ncnc54)C(O)C3O)C(O)C2O)n1 (centres undefined),> 100 µM,> 100 µM,> 100 µM,> 100 µM,> 100 µM,,,,,,> 100 µM,,> 100 µM,,,,,,> 100 µM,
CCCCCO/N=C\c1c2c(O)c3c(O)c(C)c4c(c3c1O)C(=O)C(C)(O/C=C\C(OC)C(C)C(OC(C)=O)C(C)C(O)C(C)C(O)C(C)/C=C\C=C(\C)C(=O)N2)O4 (centres undefined),3.33 µM,3.02 µM,3.23 µM,3.19 µM,2.87 µM,1.8 µM,1.93 µM,4.29 µM,1.66 µM,2.8 µM,9.1 µM,,,1.66 µM,1.65 µM,4.5 µM,1.67 µM,1.46 µM,6.34 µM,2.92 µM
CCCCCCCCCCCCC(Br)C(=O)NCC(N)=O (centres undefined),29.2 µM,29.2 µM,17.8 µM,24.3 µM,11.6 µM,,,,,,,,34.7 µM,,,,,,31 µM,
CC(C)=CC(=O)N(C)C1C2CN3CCC(O2)C13 (centres undefined),> 100 µM,> 100 µM,> 100 µM,> 100 µM,> 100 µM,,,,,,> 100 µM,,> 100 µM,,,,,,> 100 µM,
COc1ccc(-c2cc(C(=O)Nc3ccc(C)c(C)c3)nc(NC#N)n2)cc1,> 100 µM,> 100 µM,> 100 µM,> 100 µM,> 100 µM,,,,,,> 100 µM,,> 100 µM,,,,,,,
O=C(Nc1cccc(-n2cc(-c3ccncc3)c(-c3cc(O)cc(Cl)c3)n2)c1)c1cc(C(F)(F)F)cc(C(F)(F)F)c1,> 100 µM,85.3 µM,> 100 µM,> 100 µM,> 100 µM,4.98 µM,5.19 µM,> 100 µM,4.71 µM,2.38 µM,> 100 µM,,,6.38 µM,2.28 µM,22.5 µM,7.03 µM,2.8 µM,,
COCCNC(=O)C1C(=O)C(=O)N(CCOC)C1=O (centres undefined),> 100 µM,> 100 µM,> 100 µM,> 100 µM,> 100 µM,,,,,,,,> 100 µM,,,,,,,
O=C(O)/C=C/c1nc2ccccc2c(=O)o1,> 100 µM,> 100 µM,,> 100 µM,> 100 µM,,,,,,> 100 µM,,> 100 µM,,,,,,> 100 µM,
c1ccc(CCc2cccnc2)nc1,> 100 µM,> 100 µM,> 100 µM,> 100 µM,> 100 µM,,,,,,> 100 µM,,> 100 µM,,,> 100 µM,,,,
COC1C(O)C(CO)OC(OC2C(O)COC(OC3C(C)OC(OC4C(O[C@H]5CC[C@@]6(C)C(CC=C7[C@H]6CCC68C(=O)O[C@@](C)(CCCC(C)C)[C@H]6[C@@H](OC(C)=O)C[C@@]78C)C5(C)C)OCC(OS(=O)(=O)O)C4O)C(OC4OCC(O)C(O)C4O)C3O)C2O)C1O (some centres undefined),0.298 µM,2.14 µM,0.685 µM,0.374 µM,0.465 µM,0.149 µM,0.209 µM,0.656 µM,0.495 µM,0.153 µM,0.368 µM,0.333 µM,0.855 µM,0.199 µM,0.159 µM,1.87 µM,0.149 µM,0.214 µM,,
Cc1cc(C)nc(NS(=O)(=O)c2ccc(Nc3c4ccccc4nc4c(C(=O)Nc5ccc(S(=O)(=O)N=C(N)N)cc5)cccc34)cc2)n1,> 100 µM,> 100 µM,> 100 µM,> 100 µM,88.5 µM,,,,,,> 100 µM,,> 100 µM,,,,,,,
